Consider 18 compounds from the NIST ThermoML archive (doi:10.1016/j.jct.2011.02.012).

For data set [1] the following is noted: 101.33 kPa, Liquid, Vibrating tube method.
The nature of data set [2]: activity coefficient (dimensionless); of the first substance listed, at infinite dilution; xn = mol fraction of the nth substance listed. The conditions noted are these: Liquid, Chromatography, x1 = 0.

As usually defined, the mass density is the mass of a sample divided by its volume.

Numbers after ± are expanded uncertainties.

Consider `CCn1cc[n+](C)c1.N#C[B-](C#N)(C#N)C#N` [1-ethyl-3-methylimidazolium tetracyanoborate], for which the mass density in data set [1] (298.15 K) was determined as 1036.27 ± 0.26 kg/m3; in data set [1] (308.15 K) it was 1028.4 ± 0.25 kg/m3; in data set [1] (318.15 K), 1020.64 ± 0.25 kg/m3; in data set [1] (328.15 K), 1012.97 ± 0.24 kg/m3; in data set [1] (338.15 K), 1005.4 ± 0.24 kg/m3; in data set [1] (348.15 K), 997.91 ± 0.23 kg/m3. Also, in data set [1] (358.15 K), the mass density stood at 990.51 ± 0.23 kg/m3.

For the compound `CCc1ccccc1` [ethylbenzene] + CCn1cc[n+](C)c1.N#C[B-](C#N)(C#N)C#N, the activity coefficient in data set [2] (298.15 K) was found to be 2.6 ± 0.18; in data set [2] (308.15 K), 2.6 ± 0.18; in data set [2] (318.15 K) it was 2.61 ± 0.18; in data set [2] (328.15 K), 2.61 ± 0.18; in data set [2] (338.15 K), 2.61 ± 0.18; in data set [2] (348.15 K), 2.61 ± 0.18. For the same compound, the activity coefficient in data set [2] (358.15 K) was found to be 2.61 ± 0.18.

Turning to `CCCCCCC` [heptane] + CCn1cc[n+](C)c1.N#C[B-](C#N)(C#N)C#N, the activity coefficient stood at 53.4 ± 3.7 in data set [2] (298.15 K); 47.9 ± 3.3 in data set [2] (308.15 K); 44.1 ± 3 in data set [2] (318.15 K); 39.9 ± 2.7 in data set [2] (328.15 K); 36.7 ± 2.5 in data set [2] (338.15 K); 34.3 ± 2.3 in data set [2] (348.15 K). In addition, in data set [2] (358.15 K), the activity coefficient was determined as 31.7 ± 2.2.

With `C=CCCCC` [hex-1-ene] + CCn1cc[n+](C)c1.N#C[B-](C#N)(C#N)C#N, the activity coefficient in data set [2] (298.15 K) came to 14.4 ± 1; in data set [2] (308.15 K), 13.5 ± 0.9; in data set [2] (318.15 K), 12.9 ± 0.9; in data set [2] (328.15 K) it was 12.2 ± 0.8; in data set [2] (338.15 K), 11.6 ± 0.8; in data set [2] (348.15 K), 11.2 ± 0.8. Besides, the activity coefficient in data set [2] (358.15 K) was 10.6 ± 0.7.

Regarding `CCCCCC` [hexane] + CCn1cc[n+](C)c1.N#C[B-](C#N)(C#N)C#N, the activity coefficient in data set [2] (298.15 K) stood at 33.8 ± 2.3; in data set [2] (308.15 K), 30.7 ± 2.1; in data set [2] (318.15 K), 28.9 ± 2; in data set [2] (328.15 K), 26.3 ± 1.8; in data set [2] (338.15 K), 24.5 ± 1.7; in data set [2] (348.15 K), 23.1 ± 1.6. Moreover, the activity coefficient in data set [2] (358.15 K) stood at 21.8 ± 1.5.

Take `CO` [methanol] + CCn1cc[n+](C)c1.N#C[B-](C#N)(C#N)C#N: the activity coefficient was determined as 1.1 ± 0.07 in data set [2] (298.15 K); 1.02 ± 0.06 in data set [2] (308.15 K); 0.948 ± 0.06 in data set [2] (318.15 K); 0.886 ± 0.056 in data set [2] (328.15 K); 0.835 ± 0.054 in data set [2] (338.15 K); 0.788 ± 0.051 in data set [2] (348.15 K). For the same compound, in data set [2] (358.15 K), the activity coefficient came out at 0.748 ± 0.049.

With `CC1CCCCC1` [methylcyclohexane] + CCn1cc[n+](C)c1.N#C[B-](C#N)(C#N)C#N, the activity coefficient worked out at 24.9 ± 1.7 in data set [2] (298.15 K); 22.7 ± 1.6 in data set [2] (308.15 K); 21.1 ± 1.4 in data set [2] (318.15 K); 19.4 ± 1.3 in data set [2] (328.15 K); 18 ± 1 in data set [2] (338.15 K); 16.9 ± 1.2 in data set [2] (348.15 K). The activity coefficient in data set [2] (358.15 K) was found to be 15.9 ± 1.1.

For `CCCCCCCCC` [nonane] + CCn1cc[n+](C)c1.N#C[B-](C#N)(C#N)C#N, the activity coefficient in data set [2] (298.15 K) came to 131 ± 9; in data set [2] (308.15 K), 114 ± 8; in data set [2] (318.15 K), 102 ± 7; in data set [2] (328.15 K), 90.2 ± 6.2; in data set [2] (338.15 K) it was 81.1 ± 5.6; in data set [2] (348.15 K), 73.2 ± 5. In addition, the activity coefficient in data set [2] (358.15 K) was 66.3 ± 4.5.

As for `C=CCCCCCC` [oct-1-ene] + CCn1cc[n+](C)c1.N#C[B-](C#N)(C#N)C#N, the activity coefficient worked out at 35 ± 2.4 in data set [2] (298.15 K); 32 ± 2.2 in data set [2] (308.15 K); 29.9 ± 2 in data set [2] (318.15 K); 27.8 ± 1.9 in data set [2] (328.15 K); 25.9 ± 1.8 in data set [2] (338.15 K); 24.5 ± 1.7 in data set [2] (348.15 K). The activity coefficient in data set [2] (358.15 K) was 23.1 ± 1.6.

`CCCCCCCC` [octane] + CCn1cc[n+](C)c1.N#C[B-](C#N)(C#N)C#N: the activity coefficient amounted to 83.2 ± 5.7 in data set [2] (298.15 K); 73.6 ± 5 in data set [2] (308.15 K); 67.4 ± 4.6 in data set [2] (318.15 K); 60.2 ± 4.1 in data set [2] (328.15 K); 54.8 ± 3.8 in data set [2] (338.15 K); 50.2 ± 3.4 in data set [2] (348.15 K). The activity coefficient in data set [2] (358.15 K) amounted to 46 ± 3.1.

Turning to `CCCC(C)=O` [pentan-2-one] + CCn1cc[n+](C)c1.N#C[B-](C#N)(C#N)C#N, the activity coefficient in data set [2] (308.15 K) is 0.816 ± 0.053; in data set [2] (318.15 K) it was 0.833 ± 0.054; in data set [2] (328.15 K) it was 0.847 ± 0.054; in data set [2] (338.15 K), 0.861 ± 0.055; in data set [2] (348.15 K) it was 0.879 ± 0.056; in data set [2] (358.15 K) it was 0.796 ± 0.052.

As to `CCC(=O)CC` [pentan-3-one] + CCn1cc[n+](C)c1.N#C[B-](C#N)(C#N)C#N, the activity coefficient came out at 0.798 ± 0.052 in data set [2] (308.15 K); 0.821 ± 0.053 in data set [2] (318.15 K); 0.842 ± 0.054 in data set [2] (328.15 K); 0.861 ± 0.055 in data set [2] (338.15 K); 0.883 ± 0.056 in data set [2] (348.15 K); 0.771 ± 0.05 in data set [2] (358.15 K).

Turning to `CCCCC` [pentane] + CCn1cc[n+](C)c1.N#C[B-](C#N)(C#N)C#N, the activity coefficient amounted to 22 ± 1.5 in data set [2] (298.15 K); 20.1 ± 1.4 in data set [2] (308.15 K); 19.1 ± 1.3 in data set [2] (318.15 K); 17.6 ± 1.2 in data set [2] (328.15 K); 16.6 ± 1.1 in data set [2] (338.15 K); 15.8 ± 1.1 in data set [2] (348.15 K). The activity coefficient in data set [2] (358.15 K) was 14.9 ± 1.

Take `CCCO` [propan-1-ol] + CCn1cc[n+](C)c1.N#C[B-](C#N)(C#N)C#N: the activity coefficient in data set [2] (298.15 K) was 2.01 ± 0.14; in data set [2] (308.15 K), 1.81 ± 0.12; in data set [2] (318.15 K), 1.65 ± 0.11; in data set [2] (328.15 K) it was 1.5 ± 0.1; in data set [2] (338.15 K) it was 1.39 ± 0.09; in data set [2] (348.15 K), 1.3 ± 0.08. The activity coefficient in data set [2] (358.15 K) was 1.21 ± 0.08.

For the compound `C1CCOC1` [tetrahydrofuran] + CCn1cc[n+](C)c1.N#C[B-](C#N)(C#N)C#N, the activity coefficient was determined as 0.686 ± 0.046 in data set [2] (298.15 K); 0.707 ± 0.047 in data set [2] (308.15 K); 0.726 ± 0.048 in data set [2] (318.15 K); 0.737 ± 0.049 in data set [2] (328.15 K); 0.753 ± 0.05 in data set [2] (338.15 K); 0.775 ± 0.051 in data set [2] (348.15 K). The activity coefficient in data set [2] (358.15 K) stood at 0.789 ± 0.051.

For the compound `c1ccsc1` [thiophene] + CCn1cc[n+](C)c1.N#C[B-](C#N)(C#N)C#N, the activity coefficient in data set [2] (298.15 K) is 0.938 ± 0.059; in data set [2] (308.15 K), 0.949 ± 0.06; in data set [2] (318.15 K), 0.958 ± 0.06; in data set [2] (328.15 K) it was 0.966 ± 0.061; in data set [2] (338.15 K) it was 0.976 ± 0.061; in data set [2] (348.15 K) it was 0.983 ± 0.062. Moreover, the activity coefficient in data set [2] (358.15 K) came to 0.992 ± 0.062.

As for `Cc1ccccc1` [toluene] + CCn1cc[n+](C)c1.N#C[B-](C#N)(C#N)C#N, the activity coefficient came to 1.65 ± 0.11 in data set [2] (298.15 K); 1.67 ± 0.11 in data set [2] (308.15 K); 1.69 ± 0.11 in data set [2] (318.15 K); 1.71 ± 0.11 in data set [2] (328.15 K); 1.73 ± 0.12 in data set [2] (338.15 K); 1.75 ± 0.12 in data set [2] (348.15 K). Moreover, the activity coefficient in data set [2] (358.15 K) came to 1.76 ± 0.12.

Turning to `O` [water] + CCn1cc[n+](C)c1.N#C[B-](C#N)(C#N)C#N, the activity coefficient in data set [2] (298.15 K) was 2.24 ± 0.15; in data set [2] (308.15 K), 1.99 ± 0.14; in data set [2] (318.15 K) it was 1.82 ± 0.12; in data set [2] (328.15 K), 1.66 ± 0.11; in data set [2] (338.15 K), 1.51 ± 0.1; in data set [2] (348.15 K) it was 1.38 ± 0.09. For the same compound, the activity coefficient in data set [2] (358.15 K) stood at 1.29 ± 0.08.
